Tests used:
Assay type in all cases: biochemical
AKT-3 = AKT-3 (Homo sapiens, UniProt Q9Y243); assay: AKT-3 inhibition assay (standard coupled enzyme assay); settings: 170 μM ATP, 200 μM peptide, 45 nM AKT, 30° C.
PDK-1 = biological target: T1, PDK-1 (Homo sapiens, UniProt O15530); assay: PDK-1 inhibition assay (radioactive-phosphate incorporation); settings: 40 μM ATP, 65 μM PDKtide, 25 nM PDK-1, 30° C.
T1 sequence (O15530 1-556): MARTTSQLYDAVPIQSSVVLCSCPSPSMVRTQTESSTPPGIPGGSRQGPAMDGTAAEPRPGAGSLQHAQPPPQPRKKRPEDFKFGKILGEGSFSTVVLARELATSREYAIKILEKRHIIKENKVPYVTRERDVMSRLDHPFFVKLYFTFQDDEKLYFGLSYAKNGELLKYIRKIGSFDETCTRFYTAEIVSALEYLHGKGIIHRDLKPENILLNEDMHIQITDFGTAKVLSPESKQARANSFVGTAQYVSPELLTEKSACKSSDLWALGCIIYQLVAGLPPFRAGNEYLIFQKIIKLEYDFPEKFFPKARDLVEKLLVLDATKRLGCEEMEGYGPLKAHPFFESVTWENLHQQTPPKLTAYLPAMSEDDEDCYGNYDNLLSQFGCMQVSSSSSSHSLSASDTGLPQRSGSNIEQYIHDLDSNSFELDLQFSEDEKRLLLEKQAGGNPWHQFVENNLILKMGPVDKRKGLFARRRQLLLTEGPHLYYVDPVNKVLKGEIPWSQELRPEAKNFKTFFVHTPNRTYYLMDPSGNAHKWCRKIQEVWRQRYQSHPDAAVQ

PKA = PKA (Homo sapiens, UniProt P17612); assay: PKA inhibition assay (standard coupled enzyme assay); settings: 50 μM ATP, 80 μM Kemptide, 18 nM PKA, 30° C.
In short: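 Coupled PK/LDH assay (NADH read) with 18 nM PKA, 50 μM ATP and 80 μM Kemptide in 100 mM HEPES 7.5, 10 mM MgCl2, 3% DMSO at 30 °C. Compound dilutions (typically from 5 μM final) preincubated 10 min before ATP start; initial rates over 15 min gave IC50 and Ki by non-linear regression.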

AKT-3, sequence (Q9Y243 whole entry): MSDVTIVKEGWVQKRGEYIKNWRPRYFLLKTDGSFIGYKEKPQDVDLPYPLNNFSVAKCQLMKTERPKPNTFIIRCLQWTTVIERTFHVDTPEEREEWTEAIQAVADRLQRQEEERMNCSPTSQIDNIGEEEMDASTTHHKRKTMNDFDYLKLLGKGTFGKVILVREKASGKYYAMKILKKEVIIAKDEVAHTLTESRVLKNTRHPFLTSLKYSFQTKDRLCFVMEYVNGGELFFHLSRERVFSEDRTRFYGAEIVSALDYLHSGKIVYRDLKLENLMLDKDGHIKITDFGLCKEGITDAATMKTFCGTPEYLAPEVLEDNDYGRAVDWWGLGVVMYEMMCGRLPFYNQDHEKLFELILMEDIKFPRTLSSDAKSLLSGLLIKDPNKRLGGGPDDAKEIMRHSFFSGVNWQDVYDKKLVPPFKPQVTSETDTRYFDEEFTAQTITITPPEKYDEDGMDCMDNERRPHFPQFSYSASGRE

Ki (AKT-3)	Ki (PDK-1)	Ki (PKA)	Structure (SMILES)
1000 to 10000 nM	> 3000 nM	< 1000 nM	NCCC(C(=O)Nc1ccc2[nH]nc(NC3CCCCC3)c2c1)c1ccc(Cl)c(Cl)c1 (stereo not drawn) [Compound I-159]
< 1000 nM	1000 to 3000 nM	< 1000 nM	NCCC(C(=O)Nc1ccc2[nH]nc(NC(=O)c3cccc(Cl)c3)c2c1)c1ccc(Cl)c(Cl)c1 (stereo not drawn) [Compound I-160]
< 1000 nM	> 3000 nM	< 1000 nM	NCCC(C(=O)Nc1ccc2[nH]nc(Nc3cccc(OCc4ccccc4)c3)c2c1)c1ccc(Cl)c(Cl)c1 (stereo not drawn) [Compound I-161]
< 1000 nM	< 1000 nM	< 1000 nM	NCCC(C(=O)Nc1ccc2[nH]nc(Nc3cccc(Cl)c3)c2c1)c1ccc(Cl)c(Cl)c1 (stereo not drawn) [Compound I-162]
< 1000 nM	> 3000 nM	< 1000 nM	NCCC(C(=O)Nc1ccc2[nH]nc(Nc3ccc(Cl)cc3)c2c1)c1ccc(Cl)c(Cl)c1 (stereo not drawn) [Compound I-163]
< 1000 nM	1000 to 3000 nM	< 1000 nM	N#Cc1ccc(Nc2n[nH]c3ccc(NC(=O)C(CCN)c4ccc(Cl)c(Cl)c4)cc23)cc1 (stereo not drawn) [Compound I-164]
< 1000 nM	< 1000 nM	< 1000 nM	N#Cc1cccc(Nc2n[nH]c3ccc(NC(=O)C(CCN)c4ccc(Cl)c(Cl)c4)cc23)c1 (stereo not drawn) [Compound I-165]
< 1000 nM	1000 to 3000 nM	< 1000 nM	NCCC(C(=O)Nc1ccc2[nH]nc(Nc3ccc(Br)cc3)c2c1)c1ccc(Cl)c(Cl)c1 (stereo not drawn) [Compound I-166]
< 1000 nM	< 1000 nM	< 1000 nM	COc1cccc(C(=O)Nc2n[nH]c3ccc(NC(=O)C(CCN)c4ccc(Cl)c(Cl)c4)cc23)c1 (stereo not drawn) [Compound I-167]
< 1000 nM	< 1000 nM	< 1000 nM	COc1ccc(C(=O)Nc2n[nH]c3ccc(NC(=O)C(CCN)c4ccc(Cl)c(Cl)c4)cc23)cc1 (stereo not drawn) [Compound I-168]
< 1000 nM	< 1000 nM	< 1000 nM	NCCC(C(=O)Nc1ccc2[nH]nc(NC(=O)c3cccs3)c2c1)c1ccc(Cl)c(Cl)c1 (stereo not drawn) [Compound I-169]
< 1000 nM	< 1000 nM	< 1000 nM	NCCC(C(=O)Nc1ccc2[nH]nc(NC(=O)c3ccc(-c4ccccc4)cc3)c2c1)c1ccc(Cl)c(Cl)c1 (stereo not drawn) [Compound I-172]
< 1000 nM	< 1000 nM	< 1000 nM	N#Cc1ccc(C(=O)Nc2n[nH]c3ccc(NC(=O)C(CCN)c4ccc(Cl)c(Cl)c4)cc23)cc1 (stereo not drawn) [Compound I-174]
< 1000 nM	1000 to 3000 nM	< 1000 nM	N#Cc1cccc(C(=O)Nc2n[nH]c3ccc(NC(=O)C(CCN)c4ccc(Cl)c(Cl)c4)cc23)c1 (stereo not drawn) [Compound I-175]
< 1000 nM	1000 to 3000 nM	< 1000 nM	NCC[C@@H](C(=O)Nc1ccc2[nH]nc(NC(=O)c3cccc(Cl)c3)c2c1)c1cccc(Cl)c1F [Compound I-177]
< 1000 nM	> 3000 nM	< 1000 nM	NCCC(C(=O)Nc1ccc2[nH]nc(NC(=O)c3cccc(Oc4ccccc4)c3)c2c1)c1ccc(Cl)c(Cl)c1 (stereo not drawn) [Compound I-178]
< 1000 nM	< 1000 nM	< 1000 nM	NCCC(C(=O)Nc1ccc2[nH]nc(NC(=O)c3cccc(F)c3)c2c1)c1ccc(Cl)c(Cl)c1 (stereo not drawn) [Compound I-179]
< 1000 nM	1000 to 3000 nM	< 1000 nM	NCCC(C(=O)Nc1ccc2[nH]nc(NC(=O)c3ccccc3Cl)c2c1)c1ccc(Cl)c(Cl)c1 (stereo not drawn) [Compound I-180]
< 1000 nM	< 1000 nM	< 1000 nM	CCOc1cccc(C(=O)Nc2n[nH]c3ccc(NC(=O)C(CCN)c4ccc(Cl)c(Cl)c4)cc23)c1 (stereo not drawn) [Compound I-181]

Ki (AKT-3)	Ki (PDK-1)	Ki (PKA)	Structure (SMILES)
< 1000 nM	< 1000 nM	< 1000 nM	NCCC(C(=O)Nc1ccc2[nH]nc(NC(=O)c3ccc(Cl)cc3)c2c1)c1ccc(Cl)c(Cl)c1 (stereo not drawn) [Compound I-182]
< 1000 nM	> 3000 nM	< 1000 nM	NCCC(C(=O)Nc1ccc2[nH]nc(NC(=O)c3ccc(Cl)c(Cl)c3)c2c1)c1ccc(Cl)c(Cl)c1 (stereo not drawn) [Compound I-183]
< 1000 nM	> 3000 nM	< 1000 nM	NCCC(C(=O)Nc1ccc2[nH]nc(NC(=O)c3cc(Cl)cc(Cl)c3)c2c1)c1ccc(Cl)c(Cl)c1 (stereo not drawn) [Compound I-184]
< 1000 nM	1000 to 3000 nM	< 1000 nM	Cc1cccc(C(=O)Nc2n[nH]c3ccc(NC(=O)C(CCN)c4ccc(Cl)c(Cl)c4)cc23)c1 (stereo not drawn) [Compound I-185]
< 1000 nM	1000 to 3000 nM	< 1000 nM	NCCC(C(=O)Nc1ccc2[nH]nc(NC(=O)c3cccc(Br)c3)c2c1)c1ccc(Cl)c(Cl)c1 (stereo not drawn) [Compound I-186]
< 1000 nM	1000 to 3000 nM	< 1000 nM	CCc1ccc(C(=O)Nc2n[nH]c3ccc(NC(=O)C(CCN)c4ccc(Cl)c(Cl)c4)cc23)cc1 (stereo not drawn) [Compound I-187]
< 1000 nM	1000 to 3000 nM	< 1000 nM	CCCc1ccc(C(=O)Nc2n[nH]c3ccc(NC(=O)C(CCN)c4ccc(Cl)c(Cl)c4)cc23)cc1 (stereo not drawn) [Compound I-188]
< 1000 nM	< 1000 nM	< 1000 nM	NCCC(C(=O)Nc1ccc2[nH]nc(NC(=O)c3ccc(Br)cc3)c2c1)c1ccc(Cl)c(Cl)c1 (stereo not drawn) [Compound I-189]
< 1000 nM	< 1000 nM	< 1000 nM	NCCC(C(=O)Nc1ccc2[nH]nc(NC(=O)c3ccncc3)c2c1)c1ccc(Cl)c(Cl)c1 (stereo not drawn) [Compound I-193]
< 1000 nM	< 1000 nM	< 1000 nM	NCCC(C(=O)Nc1ccc2[nH]nc(NC(=O)c3cccnc3)c2c1)c1ccc(Cl)c(Cl)c1 (stereo not drawn) [Compound I-194]
< 1000 nM	< 1000 nM	< 1000 nM	NCCC(C(=O)Nc1ccc2[nH]nc(NC(=O)c3ccccn3)c2c1)c1ccc(Cl)c(Cl)c1 (stereo not drawn) [Compound I-195]
< 1000 nM	> 3000 nM	< 1000 nM	C=Cc1cccc(C(=O)Nc2n[nH]c3ccc(NC(=O)C(CCN)c4ccc(Cl)c(Cl)c4)cc23)c1 (stereo not drawn) [Compound I-196]
< 1000 nM	< 1000 nM	< 1000 nM	NCCC(C(=O)Nc1ccc2[nH]nc(NC(=O)c3cccc(CN)c3)c2c1)c1ccc(Cl)c(Cl)c1 (stereo not drawn) [Compound I-197]
< 1000 nM	< 1000 nM	< 1000 nM	NCCC(C(=O)Nc1ccc2[nH]nc(NC(=O)c3ccc(CN)cc3)c2c1)c1ccc(Cl)c(Cl)c1 (stereo not drawn) [Compound I-198]
< 1000 nM	1000 to 3000 nM	< 1000 nM	NCCC(C(=O)Nc1ccc2[nH]nc(NC(=O)c3ccc(Oc4ccccc4)cc3)c2c1)c1ccc(Cl)c(Cl)c1 (stereo not drawn) [Compound I-199]
< 1000 nM	> 3000 nM	< 1000 nM	NCCC(C(=O)Nc1ccc2[nH]nc(NC(=O)c3cccc(C(F)(F)F)c3)c2c1)c1ccc(Cl)c(Cl)c1 (stereo not drawn) [Compound I-200]
< 1000 nM	> 3000 nM	< 1000 nM	NCCC(C(=O)Nc1ccc2[nH]nc(NC(=O)c3cc(F)cc(F)c3)c2c1)c1ccc(Cl)c(Cl)c1 (stereo not drawn) [Compound I-201]
< 1000 nM	> 3000 nM	1000 to 5000 nM	NCCC(C(=O)Nc1ccc2[nH]nc(NC(=O)c3cc(C(F)(F)F)cc(C(F)(F)F)c3)c2c1)c1ccc(Cl)c(Cl)c1 (stereo not drawn) [Compound I-202]
< 1000 nM	> 3000 nM	< 1000 nM	NCCC(C(=O)Nc1ccc2[nH]nc(NC(=O)c3cc(F)cc(C(F)(F)F)c3)c2c1)c1ccc(Cl)c(Cl)c1 (stereo not drawn) [Compound I-203]

From patent US7041687B2, “Indazole compounds useful as protein kinase inhibitors” (Vertex Pharmaceuticals Incorporated, priority 2002, dated 2006)
